# Experimental data: ChEMBL document CHEMBL6103639, “Structure-Based Development of 3,4-Fused Tricyclic Benzofuran Derivatives as Polyketide Synthase 13 Inhibitors with Negligible hERG Inhibition” (J Med Chem, 2025)
# Columns and labels:
# [1] = system: Mycobacterium tuberculosis; test: Antitubercular activity against Mycobacterium tuberculosis H37Rv assessed as reduction in microbial growth by microplate alamar blue assay; format: functional
# [2] = target: Polyketide synthase Pks13 (Mycobacterium tuberculosis (strain ATCC 25618 / H37Rv)) (UniProt I6X8D2); test: Induction of stabilization of Mycobacterium tuberculosis H37Rv Pks-13 TE domain assessed as melting temperature incubated for 30 mins by NanoDSF assay
# [3] = target: Polyketide synthase Pks13 (Mycobacterium tuberculosis (strain ATCC 25618 / H37Rv)) (UniProt I6X8D2); test: Induction of stabilization of Mycobacterium tuberculosis H37Rv Pks-13 TE domain assessed as change in melting temperature incubated for 30 mins by NanoDSF assay
# [4] = target: Polyketide synthase Pks13 (Mycobacterium tuberculosis (strain ATCC 25618 / H37Rv), UniProt I6X8D2); test: Inhibition of Mycobacterium tuberculosis H37Rv Pks-13 TE domain using 4-MUH as fluorogenic substrate incubated for 90 mins by fluorescence based analysis
# [5] = target: Voltage-gated inwardly rectifying potassium channel KCNH2 (Homo sapiens, UniProt Q12809); test: Inhibition of human ERG expressed in CHO cells incubated for 2.5 mins by Q-patch-clamp electrophysiological analysis; format: toxicity, cell-based
# [6] = Metabolic stability in human liver microsomes assessed as half life at 0.1 uM measured upto 60 mins by LC/MS-MS analysis; format: ADME, Microsome
# [7] = Metabolic stability in human liver microsomes assessed as intrinsic clearance at 0.1 uM measured upto 60 mins by LC/MS-MS analysis; format: ADME, Microsome; conditions: read-out: CLH
# [8] = Metabolic stability in human liver microsomes assessed as parent compound remaining at 0.1 uM incubated for 60 mins by LC/MS-MS analysis; format: ADME, Microsome; conditions: read-out: Stability
# [9] = system: Mycobacterium tuberculosis; test: Antitubercular activity against Mycobacterium tuberculosis H37Rv assessed as reduction in microbial growth incubated for 6 days by microplate alamar blue assay; format: functional; conditions: 144 h, time 6 day
# Voltage-gated inwardly rectifying potassium channel KCNH2, sequence (Q12809 whole entry): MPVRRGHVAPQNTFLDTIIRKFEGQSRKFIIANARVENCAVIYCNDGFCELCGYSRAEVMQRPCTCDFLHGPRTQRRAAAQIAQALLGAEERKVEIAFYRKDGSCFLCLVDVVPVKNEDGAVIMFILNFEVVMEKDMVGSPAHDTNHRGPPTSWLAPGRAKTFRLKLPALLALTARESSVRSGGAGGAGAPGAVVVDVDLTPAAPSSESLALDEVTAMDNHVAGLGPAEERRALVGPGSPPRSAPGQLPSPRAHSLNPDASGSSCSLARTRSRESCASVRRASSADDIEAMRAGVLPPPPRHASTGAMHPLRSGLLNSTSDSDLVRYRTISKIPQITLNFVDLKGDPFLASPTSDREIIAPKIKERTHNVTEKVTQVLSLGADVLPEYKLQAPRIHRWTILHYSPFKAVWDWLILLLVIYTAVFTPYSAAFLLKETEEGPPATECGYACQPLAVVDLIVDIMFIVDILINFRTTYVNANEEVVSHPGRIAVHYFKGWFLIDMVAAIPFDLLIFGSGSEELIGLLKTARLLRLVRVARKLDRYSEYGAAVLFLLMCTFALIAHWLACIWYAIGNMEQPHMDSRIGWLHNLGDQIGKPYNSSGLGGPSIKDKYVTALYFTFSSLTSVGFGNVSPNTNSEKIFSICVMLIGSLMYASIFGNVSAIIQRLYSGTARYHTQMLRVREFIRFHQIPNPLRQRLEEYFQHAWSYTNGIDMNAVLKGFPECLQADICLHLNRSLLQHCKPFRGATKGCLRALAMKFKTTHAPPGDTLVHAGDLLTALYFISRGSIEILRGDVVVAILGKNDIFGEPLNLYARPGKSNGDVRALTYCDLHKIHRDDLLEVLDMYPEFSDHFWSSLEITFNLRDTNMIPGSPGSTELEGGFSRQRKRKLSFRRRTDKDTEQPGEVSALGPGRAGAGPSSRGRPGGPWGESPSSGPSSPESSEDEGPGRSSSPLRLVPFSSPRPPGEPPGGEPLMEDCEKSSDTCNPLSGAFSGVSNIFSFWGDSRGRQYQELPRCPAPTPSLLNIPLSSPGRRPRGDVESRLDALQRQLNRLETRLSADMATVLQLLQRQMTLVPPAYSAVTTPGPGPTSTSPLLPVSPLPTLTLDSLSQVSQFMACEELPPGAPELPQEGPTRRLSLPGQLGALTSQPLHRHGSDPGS
# Polyketide synthase Pks13 (Mycobacterium tuberculosis (strain ATCC 25618 / H37Rv)), sequence (I6X8D2 whole entry, the tested form may be a part): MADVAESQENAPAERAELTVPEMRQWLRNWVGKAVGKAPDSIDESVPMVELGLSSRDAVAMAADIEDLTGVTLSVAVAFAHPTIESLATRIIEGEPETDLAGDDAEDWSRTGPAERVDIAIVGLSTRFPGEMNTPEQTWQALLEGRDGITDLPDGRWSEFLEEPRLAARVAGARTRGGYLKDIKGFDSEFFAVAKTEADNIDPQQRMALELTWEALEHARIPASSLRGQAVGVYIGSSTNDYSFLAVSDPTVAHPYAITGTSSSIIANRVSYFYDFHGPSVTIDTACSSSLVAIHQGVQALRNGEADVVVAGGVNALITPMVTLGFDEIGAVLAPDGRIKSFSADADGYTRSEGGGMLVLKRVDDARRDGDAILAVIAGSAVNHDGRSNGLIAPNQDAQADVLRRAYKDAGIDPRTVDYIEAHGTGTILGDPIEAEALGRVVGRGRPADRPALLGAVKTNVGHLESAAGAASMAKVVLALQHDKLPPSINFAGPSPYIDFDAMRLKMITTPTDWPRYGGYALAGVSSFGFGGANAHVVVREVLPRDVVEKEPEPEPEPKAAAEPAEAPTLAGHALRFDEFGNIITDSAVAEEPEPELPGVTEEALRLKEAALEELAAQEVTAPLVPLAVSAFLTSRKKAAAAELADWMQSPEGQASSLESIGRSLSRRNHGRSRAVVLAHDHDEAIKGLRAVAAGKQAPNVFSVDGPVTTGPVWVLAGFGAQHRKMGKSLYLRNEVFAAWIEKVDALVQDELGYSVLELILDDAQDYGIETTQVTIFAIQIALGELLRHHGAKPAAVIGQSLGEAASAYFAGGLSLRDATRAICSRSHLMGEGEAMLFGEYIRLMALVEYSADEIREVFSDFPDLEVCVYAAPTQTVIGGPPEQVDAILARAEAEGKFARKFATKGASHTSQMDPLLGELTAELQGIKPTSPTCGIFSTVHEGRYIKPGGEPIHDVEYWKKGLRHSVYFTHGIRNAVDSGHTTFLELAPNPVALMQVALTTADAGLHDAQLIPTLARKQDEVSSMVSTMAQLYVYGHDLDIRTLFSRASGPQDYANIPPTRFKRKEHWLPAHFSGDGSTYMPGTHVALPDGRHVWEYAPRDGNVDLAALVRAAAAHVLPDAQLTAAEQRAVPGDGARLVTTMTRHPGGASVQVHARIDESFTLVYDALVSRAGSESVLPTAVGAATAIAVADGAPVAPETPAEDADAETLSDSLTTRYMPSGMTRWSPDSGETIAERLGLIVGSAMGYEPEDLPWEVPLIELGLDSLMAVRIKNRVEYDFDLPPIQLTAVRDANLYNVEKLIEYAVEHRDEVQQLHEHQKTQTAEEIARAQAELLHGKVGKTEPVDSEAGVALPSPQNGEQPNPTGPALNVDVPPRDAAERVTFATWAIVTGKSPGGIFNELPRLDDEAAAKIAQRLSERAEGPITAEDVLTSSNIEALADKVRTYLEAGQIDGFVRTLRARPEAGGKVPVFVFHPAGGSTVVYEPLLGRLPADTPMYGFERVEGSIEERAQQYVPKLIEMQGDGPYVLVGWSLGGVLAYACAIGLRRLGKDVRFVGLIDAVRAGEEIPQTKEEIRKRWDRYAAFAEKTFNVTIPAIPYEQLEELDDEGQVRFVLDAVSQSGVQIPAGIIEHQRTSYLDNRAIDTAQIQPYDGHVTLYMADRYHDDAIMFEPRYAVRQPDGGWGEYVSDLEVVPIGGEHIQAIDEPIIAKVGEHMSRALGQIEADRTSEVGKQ
# Polyketide synthase Pks13, sequence (I6X8D2 whole entry, the tested form may be a part): as above
SMILES,MIC [1] [µg/mL],also measured
CC1c2c(O)ccc3c2c(cn3-c2ccccc2)CCN1CC1CC1 (stereo unspecified),16,–
CN1CN(CC2CC2)Cc2c(O)ccc3c2c(cn3-c2ccc(Br)cc2)C1=O,8,–
CN1CN(CC2CCCC2)Cc2c(O)ccc3oc(-c4ccc(O)cc4)c(c23)C1=O,2,–
COc1ccc2oc(-c3ccc(O)cc3)c3c2c1CN(CC1CCC1)CN(C)C3=O,64,–
CN1CN(CC2CCC2)Cc2c(O)ccc3oc(-c4ccccc4)c(c23)C1=O,0.5,–
CC1c2c(O)ccc3c2c(cn3-c2ccc(Br)cc2)C(=O)CN1C1CCC1 (stereo unspecified),64,–
CN1CN(CC2CCC2)Cc2c(O)ccc3c2c(cn3-c2ccc(Br)cc2)C1=O,8,–
CN1CN(CC2CCCC2)Cc2c(O)ccc3c2c(cn3-c2ccc(Br)cc2)C1=O,> 64,–
CN1CN(C2CCC2)Cc2c(O)ccc3c2c(cn3-c2ccc(Br)cc2)C1=O,8,–
O=C1NCN(C2CCCC2)Cc2c(O)ccc3oc(-c4ccc(O)cc4)c1c23,0.5,–
CN1CN(CCC2CC2)Cc2c(O)ccc3oc(-c4ccc(O)cc4)c(c23)C1=O,0.25,–
CN1CN(CC2CCC2)Cc2c(O)ccc3oc(-c4ccc(F)cc4)c(c23)C1=O,2,–
CN1CN(C2CCCC2)Cc2c(O)ccc3oc(-c4ccc(O)cc4)c(c23)C1=O,0.125,"Tm [2]: 66 °C; ΔTm [3]: 7 °C; IC50 [4]: 5.87 µM; IC50 [5]: > 100 µM; half-life at 0.1 µM [6]: 28.9 min; microsomal CLint at 0.1 µM [7]: 48 µL/min/mg; remaining at 1 h, 0.1 µM [8]: 23.3%"
O=c1oc2cc(O)ccc2c2oc3ccc(O)c(CN4CCCCC4)c3c12,–,IC50 [5]: 0.52 µM
CNC(=O)c1c(-c2ccc(O)cc2)oc2ccc(O)c(CN3CCCCC3)c12,–,Tm [2]: 67.4 °C; ΔTm [3]: 8.4 °C
Oc1ccc2c3c(cn2-c2ccc(Br)cc2)CCN(C2CCC2)Cc13,16,–
CC1c2c(O)ccc3c2c(cn3-c2ccccc2)CCN1C1CCC1 (stereo unspecified),16,–
CN1CN(CC2CCC2)Cc2c(O)ccc3oc(-c4ccc(O)cc4)c(c23)C1=O,0.016,"Tm [2]: 65.8 °C; ΔTm [3]: 6.8 °C; IC50 [4]: 2.1 µM; IC50 [5]: > 100 µM; half-life at 0.1 µM [6]: 17.7 min; microsomal CLint at 0.1 µM [7]: 78.2 µL/min/mg; remaining at 1 h, 0.1 µM [8]: 8.2%"
CC1c2c(O)ccc3c2c(cn3-c2ccc(Br)cc2)CCN1C1CCC1 (stereo unspecified),8,–
CC1c2c(O)ccc3c2c(cn3-c2ccc(Br)cc2)C(=O)CN1CC1CCC1 (stereo unspecified),> 64,–
CC(C)CCN1Cc2c(O)ccc3oc(-c4ccc(O)cc4)c(c23)C(=O)N(C)C1,0.25,–

SMILES,MIC [1] [µg/mL],also measured
CC1c2c(O)ccc3c2c(cn3-c2ccc(Br)cc2)C(=O)CN1CC1CC1 (stereo unspecified),32,–
CC(C)CN1Cc2c(O)ccc3oc(-c4ccc(O)cc4)c(c23)C(=O)N(C)C1,0.062,–
CN1CN(C2CCC2)Cc2c(O)ccc3oc(-c4ccc(O)cc4)c(c23)C1=O,0.125,–
CCOC(=O)c1c(NC(=O)c2c(F)c(F)c(F)c(F)c2F)sc2c1CCN(CC)C2,–,MIC [9]: 0.23 µM
COc1ccc(-c2oc3ccc(O)c4c3c2C(=O)N(C)CN(CC2CCC2)C4)cc1,0.25,–
Oc1ccc2c3c(cn2-c2ccc(Br)cc2)CCN(CC2CCC2)Cc13,8,"half-life at 0.1 µM [6]: 51.5 min; microsomal CLint at 0.1 µM [7]: 26.9 µL/min/mg; remaining at 1 h, 0.1 µM [8]: 44.1%"
CC1c2c(O)ccc3c2c(cn3-c2ccc(Br)cc2)CCN1CC1CCC1 (stereo unspecified),8,–
CN1CN(CC2CCC2)Cc2c(O)ccc3oc(-c4cccc(O)c4)c(c23)C1=O,0.125,–
C[C@]12CC[C@H]3[C@@H](CCC4=CC(=O)CC[C@@]43C)[C@@H]1CC[C@@H]2O [TESTOSTERONE],–,"remaining at 1 h, 0.1 µM [8]: 4.1%"
CN1CN(CC2CC2)Cc2c(O)ccc3oc(-c4ccc(O)cc4)c(c23)C1=O,0.031,IC50 [5]: > 100 µM
COc1ccc(-c2oc3ccc(OC)c4c3c2C(=O)N(C)CN(CC2CCC2)C4)cc1,64,–
CC1c2c(O)ccc3c2c(cn3-c2ccc(Br)cc2)CCN1CC1CC1 (stereo unspecified),8,–
COc1cccc(-c2oc3ccc(O)c4c3c2C(=O)N(C)CN(CC2CCC2)C4)c1,4,–
Oc1ccc2c3c(cn2-c2ccc(Br)cc2)CCN(CC2CC2)Cc13,16,–
CN1CN(CCCC2CCCCC2)Cc2c(O)ccc3oc(-c4ccc(O)cc4)c(c23)C1=O,> 64,–
CN1CN(C2CCCCC2)Cc2c(O)ccc3oc(-c4ccc(O)cc4)c(c23)C1=O,8,–
CN1CN(C2CCCC2)Cc2c(O)ccc3c2c(cn3-c2ccc(Br)cc2)C1=O,1,–
CN1CN(CC2CCCCC2)Cc2c(O)ccc3oc(-c4ccc(O)cc4)c(c23)C1=O,16,–
CC(=O)c1c(C)n(-c2ccc(Br)cc2)c2ccc(O)c(CN3CCCCC3)c12,0.125,–
O=C(O)Cc1ccccc1Nc1c(Cl)cccc1Cl [DICLOFENAC],–,microsomal CLint at 0.1 µM [7]: 248 µL/min/mg
CC1c2c(O)ccc3c2c(cn3-c2ccccc2)CCN1CC1CCC1 (stereo unspecified),8,–
